Data reported in publication PMC10126473 (Frontiers in Pharmacology, 2023).

Assays:
[1] = Mouse PK and tissue distribution study (non-compartmental analysis); conditions: mice; for Tmax / half-life: male, C57BL/6, mouse, in vivo, po; for Tmax: Tmax Obs; for half-life: t1/2 Obs
Experimental: The in-life study (Animal Study Protocol Number: NIH ORS-51) was conducted at the NIH Animal Facility by the Division of Veterinary Resources (DVR, Bethesda, MD). In this study, 25–35 g male C57BL/6 mice (Charles River Laboratories, Frederick, MD) were used. For the IV groups, 66 mice (33 mice per dosing group, 3 mice per timepoint) were used for a single bolus IV dose of 3 or 10 mg/kg of PDN via tail vein injection. […] The IV and PO doses were selected to obtain a complete concentration profile in plasma and tissues, based on a preliminary study. Animals were not fasted in this study. […] All dosing solutions were freshly prepared on the day of dosing. At designated time points, blood samples were collected, and mice were euthanized with CO2 in accordance with NIH ARAC Guidelines after blood collection. The death was ensured by cervical dislocation or transthoracic puncture. Lung, liver, adipose, brain, heart, small intestine, kidney, skeletal muscle, and spleen samples were obtained from mice. […] Tissue samples were rinsed with cold saline, dried on filtrate paper, weighed, and snap frozen by placing into dry ice after collection. All samples were stored at −80°C until the analysis. All blood samples were collected in K2EDTA tubes and centrifuged at 3000 g for 10 min at 4°C to obtain plasma. Plasma samples were transferred to tubes preloaded with NaF (final concentration at 5 mM in 200 µL plasma) and stored at −80°C until analysis.
For fat tissue, an additional 3-fold volume of acetonitrile was added to the water homogenate and was vortexed in a shaker for another 30 min.
A 10 μ aliquot of samples, blank controls (blank plasma or tissue homogenates), quality controls (QC), and standards were added into 200 μ acetonitrile solution with 100 ng/mL tolbutamide (internal standard, IS). All samples were then thoroughly shaken for 5 min to precipitate proteins. The samples were centrifuged at 3000 rpm and 4°C for 30 min. The supernatant was injected for UPLC-MS/MS analysis.
The mobile phase consisted of 0.1% formic acid in water (A) and 0.1% formic acid in acetonitrile (B), the flow rate was 600 μL/min. […] All analyses were carried out using a Waters Acquity I-Class UPLC interfaced with a Waters Xevo TQ-S mass spectrometer. The mass spectrometer multiple reaction monitoring (MRM) experiment was operated with an ESI source at negative mode with spray voltage of 1 kV, and temperature of 600°C. Both Q1 and Q3 were set at unit resolution. […] The correlation coefficients of the calibration curves were all greater than 0.99. […] The linear range, precision and accuracy of QCs in various tissues and plasma are shown in Supplementary Table S1 and Supplementary Table S2.
The area under the concentration vs. time curve (AUC) was calculated using the linear trapezoidal method. The terminal rate constant (λ) was obtained from the slope of at least three data points of the apparent terminal phase of the log linear concentration vs. time curve. AUC0–∞ was estimated as the sum of the AUC0–t (where t is the time of the last measurable concentration) and Ct/λ. […] Bioavailability (F) was calculated using ratios of dose-normalized AUC of PO and IV administration.

SARS-CoV-2 = tested on: SARS-CoV-2; parameters: method as in Huang et al., 2022; conditions: cytopathic effect assay and cytotoxicity counter screen; ref Huang et al., 2022; cited from earlier work
[2] = Metabolic stability and biotransformation in liver microsomes; conditions: for Liver Vmax: in vitro
Experimental: The incubation was carried out at 37°C for 15, 30, and 60 min. The reaction in plasma or liver microsomes was quenched by adding 200 μL of cold acetonitrile (containing 100 ng/mL tolbutamide as internal standard).
The mc was the microsome concentration used in the incubation (0.5 mg/mL). The substrate disappearance half-life (t1/2) was estimated by regression analysis of the semi-logarithmic (ln Conc vs. time) plots. […] The Vmax, in vitro,app, PDN-total and Km for PDN depletion in liver microsomes were estimated by the Michaelis-Menten model using GraphPad Prism version 8.

[3] = 10 mg/kg, PO 10 mg/kg PDN, kidney
[4] = 10 mg/kg, PO 10 mg/kg PDN, liver
[5] = 10 mg/kg, PO 10 mg/kg PDN, lung
[6] = 10 mg/kg, PO 10 mg/kg PDN, muscle
[7] = 10 mg/kg, PO 10 mg/kg PDN, plasma
[8] = 10 mg/kg, PO 10 mg/kg PDN, spleen

## O=C(Nc1ccc([N+](=O)[O-])cc1Cl)c1cc(Cl)ccc1OC(=O)N1CCNCC1 [PDN]
[1]; [3]
  Tmax: 1.5 h
  half-life: 2.99 h
[1]; [4]
  Tmax: 1.5 h
  half-life: 2.36 h
[1]; [5]
  Tmax: 1.5 h
  half-life: 3.29 h
[1]; [6]
  Tmax: 1.5 h
  half-life: 2.83 h
[1]; [7]
  Tmax: 1.5 h
  half-life: ~3.2 h
[1]; [8]
  Tmax: 1.5 h
  half-life: 3.16 h
[1]; 10 mg/kg, PO 10 mg/kg PDN, adipose
  half-life: 3.48 h
[1]; 10 mg/kg, PO 10 mg/kg PDN, brain
  half-life: 2.45 h
[1]; 10 mg/kg, PO 10 mg/kg PDN, heart
  half-life: 2.16 h
[1]; 10 mg/kg, PO 10 mg/kg PDN, intestine
  half-life: 1.79 h
[1]; IV 3 mg/kg PDN, adipose
  AUC0-∞ Obs: 990 (169) h*ng/g
[1]; IV 3 mg/kg PDN, brain
  AUC0-∞ Obs: 1024 (124) h*ng/g
[1]; IV 3 mg/kg PDN, heart
  AUC0-∞ Obs: 5676 (481) h*ng/g
[1]; IV 3 mg/kg PDN, intestine
  AUC0-∞ Obs: 3222 (749) h*ng/g
[1]; IV 3 mg/kg PDN, kidney
  AUC0-∞ Obs: 9833 (1080) h*ng/g
[1]; IV 3 mg/kg PDN, lung
  AUC0-∞ Obs: 53071 (4993) h*ng/g
[1]; IV 3 mg/kg PDN, muscle
  AUC0-∞ Obs: 1828 (221) h*ng/g
[1]; IV 3 mg/kg PDN, spleen
  AUC0-∞ Obs: 16808 (1242) h*ng/g
[1]; IV 10 mg/kg PDN, brain
  AUC0-∞ Obs: 5622 (1331) h*ng/g
[1]; IV 10 mg/kg PDN, heart
  AUC0-∞ Obs: 31647 (6073) h*ng/g
[1]; IV 10 mg/kg PDN, intestine
  AUC0-∞ Obs: 14586 (1295) h*ng/g
[1]; IV 10 mg/kg PDN, kidney
  AUC0-∞ Obs: 62371 (6713) h*ng/g
[1]; IV 10 mg/kg PDN, liver
  AUC0-∞ Obs: 883 (323) h*ng/g
[1]; IV 10 mg/kg PDN, lung
  AUC0-∞ Obs: 173216 (21722) h*ng/g
[1]; IV 10 mg/kg PDN, muscle
  AUC0-∞ Obs: 10301 (2999) h*ng/g
[1]; IV 10 mg/kg PDN, spleen
  AUC0-∞ Obs: 63505 (10129) h*ng/g
[1]; PO 10 mg/kg PDN, adipose
  AUC0-∞ Obs: 2788 (299) h*ng/g
[1]; PO 10 mg/kg PDN, brain
  AUC0-∞ Obs: 2741 (488) h*ng/g
[1]; PO 10 mg/kg PDN, heart
  AUC0-∞ Obs: 10680 (1787) h*ng/g
[1]; PO 10 mg/kg PDN, intestine
  AUC0-∞ Obs: 37739 (6003) h*ng/g
[1]; PO 10 mg/kg PDN, kidney
  AUC0-∞ Obs: 40372 (8592) h*ng/g
[1]; PO 10 mg/kg PDN, liver
  AUC0-∞ Obs: 591 (176) h*ng/g
[1]; PO 10 mg/kg PDN, lung
  AUC0-∞ Obs: 123875 (23366) h*ng/g
[1]; PO 10 mg/kg PDN, muscle
  AUC0-∞ Obs: 4005 (814) h*ng/g
[1]; PO 10 mg/kg PDN, spleen
  AUC0-∞ Obs: 45737 (9727) h*ng/g
[1]; PO 10 mg/kg PDN, 10 mg/kg
  F (bioavailability) Obs: 85.8%
SARS-CoV-2
  in vitro activity against SARS-CoV-2: showed in vitro activity against SARS-CoV-2
[2]; conversion to Nc, hamster
  Liver Vmax: 0.0085 mg/s/mg microsomes
[2]; conversion to Nc, hamster, in vitro (in vitro liver parameters)
  Gut Vmax: 0.0085 mg/s/mg microsomes
[2]; conversion to Others, hamster
  Liver Vmax: 0.1059 mg/s/mg microsomes
[2]; hamster liver microsomes
  Vmax in vitro,app, PDN-total: 1.238 ± 0.133 nmol/min/mg
[2]; hamster, pH 7.4
  Km: 10.8 ± 3.04 µM
